Reference: patent US8853424B2 (Japan Science and Technology Agency, priority 2008, dated 2014)
Where two headings read alike, the source gives them in different places.

Tests used:
transglutaminase (TGase) = experiment: Measurement of TG (TGase inhibitory activity, monodansyl cadaverine / N,N-dimethylcasein fluorescence, FDSS 3000); format: biochemical
Outline: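 Compound (1 μL of 10 mM stock) added to 0.1 mL reaction: 100 mM HEPES-NaOH pH 7.5, 1 mM CaCl2, 20 μM monodansyl cadaverine, 0.05 mg/mL N,N-dimethylcasein, 5 μg/mL TGase. Rate of fluorescence change at 340 nm measured; DMSO control set to 100; TG50 is the concentration halving activity.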

[1] = system: SOC (store operated calcium channel); experiment: Measurement of SOC IC50 (thapsigargin store depletion, calcium re-addition, CHO cells); format: cell-based; details: read-out: SOC IC50
Description: The SOC (store operated calcium channel)-suppressive action can be measured by the method described in the Example and using, for example, FDSS 3000.
CHO cell culture medium was replaced with a BSS solution which is an extracellular fluidfree of calcium, the compound of the present invention was added 1 min later, and 1 μM thapsigargin was allowed to act thereon 2 min later to deplete intracellular calcium store. […]

[2] = system: Truncated N-terminal huntington 150 Q-EGFP-Neuron 2a cells; experiment: Measurement of x-Fold (polyglutamine aggregation inhibitory activity); format: cell-based
Description: In the present invention, the polyglutamine aggregation inhibitory activity (x-Fold) can be measured, for example, by the method described in the Example.
The number of the aggregated cells, and the total number of cells were counted by Array Scan V T1 (manufactured by Cellomics, Pittuburg, USA), and the ratio of the aggregated cells to the total number of cells was determined (x-Fold). […]

[3] = TGase activity with compound (10 mM, 1 μL in 0.1 ml enzyme reaction solution), DMSO control taken as 100
[4] = TGase inhibitory activity value, Table 1
[5] = Cricetulus griseus, CHO, CHO cells, 1 μM thapsigargin, 2 mM calcium chloride
[6] = Cricetulus griseus, CHO, Table 1
[7] = polyglutamine aggregation inhibitory activity, Table 1
[8] = ratio of aggregated cells to total number of cells, compound 20 μM, 20 hr, almost 1 without compound, smaller = stronger inhibition
[9] = TGase inhibitory activity measurement, unit not given
[10] = CHO cells, 1 μM thapsigargin, 2 mM calcium chloride
[11] = polyglutamine aggregation, Truncated N-terminal huntington 150 Q-EGFP-Neuron 2a cells

TGase activity remaining (% of DMSO control = 100) (transglutaminase (TGase); [3]) | TGase activity remaining (% of DMSO control = 100) (transglutaminase (TGase); [4]) | IC50 [1, 5] [nM] | IC50 [1, 6] [nM] | TGase activity remaining (% of DMSO control = 100) (transglutaminase (TGase); [9]) | IC50 [1, 10] [nM] | Compound | x-Fold [2, 7] | x-Fold [2, 8] | x-Fold [2, 11] | also measured
108 | 108 | > 10000 | > 10000 |  |  | CC(C)(C)B(O)c1ccccc1 [Example 109, tertiary-butyl phenyl borinic acid] | 1.02 | 1.02 |  | 
29 |  |  |  | 29 | 500 | c1ccc(CNCCOB(c2ccccc2)c2ccc(COCc3ccc(B(OCCNCc4ccccc4)c4ccccc4)cc3)cc2)cc1 [Example 456, bis(4,4′-(phenyl-benzylaminoethoxyboryl)benzyl)ether] |  | 0.87 | 0.87 | 
15 | 15 | 500 | 500 |  |  | CNCCOB(c1ccccc1)c1ccc(Oc2ccc(B(OCCNC)c3ccc(CO)cc3)cc2)cc1 [Example 391, (4-(phenyl-N-methylaminoethoxyboryl)phenyl)(4′-(hydroxymethylphenyl-N-methylaminoethoxyboryl)phenyl)ether] | 0.32 | 0.32 |  | 
101 |  | > 20000 |  |  |  | OB(c1ccccc1)c1cccc(B(O)c2ccccc2)c1 [Example 119, 1,3-bis(phenylhydroxyboryl)benzene] |  | 0.84 |  | 
14 |  |  |  |  | 200 | OB(c1ccccc1)c1cccc(COCc2cccc(B(O)c3ccccc3)c2)c1 [Example 7, bis(3,3′-(phenylhydroxyboryl)benzyl)ether] |  | 1.03 |  | 
23 |  |  | 200 |  |  | NC(=O)CC(N)C(=O)OB(c1ccccc1)c1ccc(Oc2ccc(B(O)c3ccccc3)cc2)cc1 (single isomer, unassigned) [Example 6, (4-(phenylasparagineboryl)phenyl)(4′-(phenylhydroxyboryl)phenyl)ether] |  | 1.01 |  | TGase activity remaining (% of DMSO control = 100) (transglutaminase (TGase); TGase inhibitory activity value, Table 1, listed as 7132): 23; x-Fold ([2]; polyglutamine aggregation inhibitory activity, Table 1, listed as 7132): 1.01
117 |  | 300 |  |  |  | NC(CCC(=O)O)C(=O)OB(c1ccccc1)c1ccc(Oc2ccc(B(OC(=O)C(N)CCC(=O)O)c3ccc(CO)cc3)cc2)cc1 (centres unmarked) [Example 275, (4-(phenyl-glutamic acid boryl)phenyl)-(4′-(hydroxymethylphenyl-glutamic acid boryl)phenyl)ether] |  | 0.67 |  | 
103 | 103 | 5000 | 5000 |  |  | O=C(OB(c1ccccc1)c1ccccc1)C1CC(O)CN1 (centres unmarked) [Example 268, diphenyl(hydroxyprolinate-O,N)borane] | 0.96 | 0.96 |  | 
101 |  |  |  |  | 20000 | OB(c1ccccc1)c1cccc(B(O)c2ccccc2)c1 [Example 147, 1,3-bis(phenylhydroxyboryl)benzene] |  | 0.87 |  | 
35 |  |  |  | 35 | 300 | NCC(OB(c1ccccc1)c1cccc(COCc2cccc(B(OC(CN)c3ccccc3)c3ccccc3)c2)c1)c1ccccc1 (centres unmarked) [Example 468, bis(3,3′-(phenyl-2-amino-1-phenylethoxyboryl)benzyl)ether] |  | 0.98 | 0.98 | 
86 | 86 | 1000 | 1000 |  |  | Cc1ccc(B(OCCNCc2ccccc2)c2ccc(C)c(Cl)c2)cc1Cl [Example 211, di(3-chloro-4-methylphenyl)benzylaminoethyl borinate] | 0.99 | 0.99 |  | 
145 |  |  |  |  | 500 | NC(=O)CC(N)C(=O)OB(c1ccccc1)c1cccc(COCc2cccc(B(OC(=O)C(N)CC(N)=O)c3ccccc3)c2)c1 (centres unmarked) [Example 474, bis(3,3′-(phenyl-asparagineboryl)benzyl)ether] |  | 1.04 |  | TGase activity remaining (% of DMSO control = 100) (transglutaminase (TGase); TGase inhibitory activity measurement, unit not given, listed as 3031): 145; x-Fold ([2]; polyglutamine aggregation, Truncated N-terminal huntington 150 Q-EGFP-Neuron 2a cells, listed as 3031): 1.04
54 | 54 | 500 | 500 |  |  | NC(=O)NCCCC(N)C(=O)OB(c1ccccc1)c1ccccc1 (centres unmarked) [Example 307, diphenyl(citrullinate-O,N)borane] | 1.06 | 1.06 |  | 
114 | 114 | 2000 | 2000 |  |  | CN(C)CCSB(c1ccccc1)c1ccccc1 [Example 294, diphenyl dimethylaminoethylthioborane] | 0.96 | 0.96 |  | 
103 |  |  |  | 103 | 1500 | NCCCC(N)C(=O)OB(c1ccccc1)c1cccc(COCc2cccc(B(OC(=O)C(N)CCCN)c3ccccc3)c2)c1 (centres unmarked) [Example 476, bis(3,3′-(phenyl-ornithineboryl)benzyl)ether] |  | 0.95 | 0.95 | 
−7 | −7 | 2000 | 2000 |  |  | Cc1ccc(B(OCC(N)c2ccccc2)c2ccc(C)c(Cl)c2)cc1Cl (centres unmarked) [Example 214] | 0.90 | 0.90 |  | 
90 |  |  |  |  |  | NCCOB(c1ccccc1)c1ccccc1 [Example 487, 2-aminoethyl diphenylborinate] |  | 0.64 |  | IC50 ([1]; Cricetulus griseus, CHO): 3000 nM
28 |  |  |  | 28 | 800 | CNCCOB(c1ccc(COCc2ccc(B(OCCNC)c3ccc(OC)cc3)cc2)cc1)c1ccc(OC)cc1 [Example 413, bis(4,4′-(p-methoxyphenyl-N-methylaminoethoxyboryl)benzyl)ether] |  | 0.81 | 0.81 | 
30 |  |  |  | 30 | 600 | CN1CCCCC1COB(c1ccccc1)c1ccc(COCc2ccc(B(OCC3CCCCN3C)c3ccccc3)cc2)cc1 (centres unmarked) [Example 457, bis(4,4′-(phenyl-N-methylpiperidine-methoxyboryl)benzyl)ether] |  | 1.10 | 1.10 | 
31 |  |  |  | 31 | 500 | CC(CN)OB(c1ccccc1)c1ccc(COCc2ccc(B(OC(C)CN)c3ccccc3)cc2)cc1 (centres unmarked) [Example 458, bis(4,4′-(phenyl-1-methyl-2-aminoethoxyboryl)benzyl)ether] |  | 1.10 | 1.10 | 
27 | 27 | 2000 | 2000 |  |  | CCCCNCCOB(c1ccc(C)c(Cl)c1)c1ccc(C)c(Cl)c1 [Example 210, di(3-chloro-4-methylphenyl)butylaminoethyl borinate] | 0.98 | 0.98 |  | 
19 |  |  |  | 19 | 300 | CC(CNCCN)OB(c1ccccc1)c1cccc(COCc2cccc(B(OC(C)CNCCN)c3ccccc3)c2)c1 (centres unmarked) [Example 470, bis(3,3′-(phenyl-N-aminoethyl-1-methyl-2-aminoethoxyboryl)benzyl)ether] |  | 1.02 | 1.02 | 

Compound | TGase activity remaining (% of DMSO control = 100) (transglutaminase (TGase); [3]) | TGase activity remaining (% of DMSO control = 100) (transglutaminase (TGase); [4]) | IC50 [1, 5] [nM] | IC50 [1, 6] [nM] | TGase activity remaining (% of DMSO control = 100) (transglutaminase (TGase); [9]) | IC50 [1, 10] [nM] | x-Fold [2, 7] | x-Fold [2, 8] | x-Fold [2, 11] | also measured
OB(c1ccccc1)c1ccccc1 [Example 488, diphenylborinic acid] | 108 |  | 4000 |  | 108 |  | 0.83 | 1.01 | 1.01 | IC50 ([1]; Cricetulus griseus, CHO, CHO cells, thapsigargin store depletion): 4000 nM
OB(c1ccccc1)c1ccc(Oc2ccc(B(O)c3ccccc3)cc2)cc1 [Example 3, bis(4,4′-(phenylhydroxyboryl)phenyl)ether] | −20 | −20 |  |  |  | 500 | 0.49 | 0.49 |  | 
NCCSB(c1ccccc1)c1ccc(-c2ccc(B(SCCN)c3ccccc3)cc2)cc1 [Example 9, 4,4′(phenyl-2-aminoethylthioboryl)diphenyl] | 12 | 12 |  |  |  | 500 | 0.87 | 0.87 |  | 
